Data reported in patent publication US7951921B2, “Multivalent carriers of bi-specific antibodies” (Immunomedics, Inc., priority 2003, dated 2011).
Primed or numbered codes have the meaning given here. DTPA′ = diethylenetriaminepentaacetic acid

Columns and labels:
[1] = not told; cited from earlier work
[2] = cited from earlier work
[3] = tested on: hMN-14IgG^(I253A)-(734scFv)2; assay: Complex formation of radiolabeled DTPA peptides with bsMAb, size exclusion HPLC; format: binding; conditions: for complexing of bsMAb with radiolabeled indium-DTPA chelates: radioiodinated bsMAb, size exclusion HPLC
Source text: The binding of In-DTPA peptides to the anti-In-DTPA antibody hMN-14IgG^(I253A)-(734scFv)2 was examined by size exclusion HPLC. The bsMAb was radioiodinated using chloramines-T (Greenwood and Hunter). Binding of the radioiodinated bsMAbs to CEA, WI2 (rat anti-MN-14 idiotypic antibody) and radiolabeled peptidyl DTPA chelate was examined on analytical size exclusion HPLC. Approximately 90% of the radioiodinated bsMAb bound to CEA upon treatment with 10-20× molar excess of CEA. The bsMAb complexed with radiolabeled indium-DTPA chelates (IMP-156 or IMP-192).
An IMP 192 kit was labeled with Tc-99m 20.9 mCi. Aliquots from the kit were diluted and mixed with hMN-14IgG^(I253A)-(734scFv)2 in the following molar ratios (peptide/Ab) 1:5, 1:1, and 20:1. The peptide/antibody mixtures, the peptide alone and the antibody alone were examined on a Bio-Sil SEC 250 300 mm×7.8 mm HPC column eluted at 1 mL/min with 0.2 M phosphate buffer pH 6.8.
A known standard of hMN-14IgG^(I253A)-(734scFv)2 eluted from the column at about 9.41 minutes (FIG. 3). A known standard of Tc-99m IMP 192 eluted from the column at about 14.85 minutes (FIG. 4).

[4] = tested on: c734 IgG; assay: Affinity blocking studies on IMP 240-coated BIAcore chip (surface plasmon resonance); format: binding
Procedure: (§1) The binding of In-DTPA peptides to the anti-In-DTPA antibody hMN-14IgG^(I253A)-(734scFv)2 was examined by affinity blocking studies using the IMP 240 peptide, Ac-Lys(DPTA)-Cys-NH2, which comprises a single DPTA group and a single Cys residue that can be used to form disulfide bridges with a second molecule having a free sulfhydryl group.
(§2) The binding studies were performed on a chip coated with IMP 240 using the disulfide connection as recommended by BIAcore. The chip surface was regenerated after each assay with 100 μL 0.025 M In-DTPA in HBS-In-citrate buffer as described. The binding studies were done with picomoles of antibody therefore binding was very sensitive to the slightest trace of In-DTPA left after the displacement wash.
Studies were performed with c734-IgG to compare the In-DTPA peptide binding behavior of this IgG to the hMN-14IgG^(I253A)-(734scFv)2.

[5] = tested on: hMN-14IgG^(I253A)-(734scFv)2; assay: as above; format: binding
Procedure: as §1, §2

[6] = target: IMP 246 [Ac-Cys-Lys(DTPA)-Tyr-Lys(DTPA)-NH2]2; assay: size exclusion HPLC; In-111 IMP 246 mixed with bsAb at 1:10 (IMP 246:bsAb) mole ratio
[7] = target: IMP 246 [Ac-Cys-Lys(DTPA)-Tyr-Lys(DTPA)-NH2]2; assay: size exclusion HPLC; labeled IMP 246 mixed with hMN-14 IgG^(I253A)-(734scFv)2, 16 hr at 37° C. in mouse serum
[8] = target: CEA (carcinoembryonic antigen) (UniProt P06731); assay: analytical size exclusion HPLC of radioiodinated bsMAb mixed with 10-20x molar excess of CEA
[9] = target: hMN-14IgG^(I253A)-(734scFv)2; assay: SPR blocking assay; peptide premixed with antibody, IMP 240 chip
[10] = target: c734 IgG; assay: as above

Chain of UniProt P06731 (P06731 35-685 limits assumed): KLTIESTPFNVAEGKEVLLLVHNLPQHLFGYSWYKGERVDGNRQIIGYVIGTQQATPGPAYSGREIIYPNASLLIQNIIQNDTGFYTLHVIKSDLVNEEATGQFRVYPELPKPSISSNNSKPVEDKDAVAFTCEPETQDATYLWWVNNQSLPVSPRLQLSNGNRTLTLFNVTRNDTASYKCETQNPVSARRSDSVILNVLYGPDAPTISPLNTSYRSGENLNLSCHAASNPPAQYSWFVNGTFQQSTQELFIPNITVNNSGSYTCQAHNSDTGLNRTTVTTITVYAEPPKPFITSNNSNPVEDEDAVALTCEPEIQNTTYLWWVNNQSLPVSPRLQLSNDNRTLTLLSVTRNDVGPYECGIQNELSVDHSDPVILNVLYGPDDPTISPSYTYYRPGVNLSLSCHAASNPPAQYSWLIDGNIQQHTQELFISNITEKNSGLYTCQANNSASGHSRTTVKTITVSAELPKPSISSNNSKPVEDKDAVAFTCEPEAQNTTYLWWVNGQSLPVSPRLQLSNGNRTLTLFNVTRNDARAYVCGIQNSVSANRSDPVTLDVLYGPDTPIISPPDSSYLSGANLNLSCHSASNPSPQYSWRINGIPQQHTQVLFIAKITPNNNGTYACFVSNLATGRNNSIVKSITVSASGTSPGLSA

Cl.NCCSSCCC(=O)O [AEDP]
Membrane Permeable [1]: No

O=C(O)CCN1C(=O)C=CC1=O [BMPA]
Membrane Permeable [1]: No

CCN=C=NCCCN(C)C [EDC, 1-ethyl-3-(3-dimethylaminopropyl)-carbodiimide]
Water Soluble [2]: Yes

O=C(O)CCCCCN1C(=O)C=CC1=O [EMCA]
Membrane Permeable [1]: No

O=C(CCCCCN1C(=O)C=CC1=O)ON1C(=O)CCC1=O [EMCS, N-[ε-maleimidocaproyloxy]succinimide ester]
Membrane Permeable [1]: Yes

O=C(CCCN1C(=O)C=CC1=O)ON1C(=O)CCC1=O [GMBS, N-[γ-Maleimidobutyryloxy] succinimide ester]
Membrane Permeable [1]: Yes

O=C(O)CCCCCCCCCCN1C(=O)C=CC1=O [KMUA]
Membrane Permeable [1]: No

O=C(CCCCCNC(=O)C1CCC(CN2C(=O)C=CC2=O)CC1)ON1C(=O)CCC1=O (centres unmarked) [LC-SMCC, succiminidyl-4-(N-maleimidomethyl)cyclohexane-1-carboxy-(6-amido-caproate)]
Membrane Permeable [1]: No

O=C(CCSSc1ccccn1)NCCCCCC(=O)ON1C(=O)CCC1=O [LC-SPDP, N-succinimidyl 6-[3′-(2-pyridyldithio)propionamido]hexanoate]
Water Soluble [2]: No

O=C(ON1C(=O)CCC1=O)c1cccc(N2C(=O)C=CC2=O)c1 [MBS, m-maleimidobenzoyl-N-hydoxysuccinimide ester]
Membrane Permeable [1]: Yes

CC(=O)SCCC(=O)ON1C(=O)CCC1=O [SATP]
Membrane Permeable [1]: Yes

O=C(CBr)NCCC(=O)ON1C(=O)CCC1=O [SBAP]
Membrane Permeable [1]: Yes

O=C(CI)Nc1ccc(C(=O)ON2C(=O)CCC2=O)cc1 [SIAB, N-succinimidyl(4-iodoacetyl)aminobenzoate]
Membrane Permeable [1]: Yes

O=C(ON1C(=O)CCC1=O)C1CCC(CN2C(=O)C=CC2=O)CC1 (centres unmarked) [SMCC, succinimidyl 4-(N-maleimidomethyl)cyclohexane-1-carboxylate]
Membrane Permeable [1]: Yes

CC(SSc1ccccn1)c1ccc(C(=O)ON2C(=O)CCC2=O)cc1 (centres unmarked) [SMPT, 4-succinimidyloxycarbonyl-methyl-(2-pyridyldithio)-toluene]
Water Soluble [2]: No

O=C(CCSSc1ccccn1)ON1C(=O)CCC1=O [SPDP, N-succinimidyl 3-(2-pyridyldithio)propionate]
Membrane Permeable [1]: Yes

C=CS(=O)(=O)c1ccc(C(=O)ON2C(=O)CCC2=O)cc1 [SVSB]
Membrane Permeable [1]: Yes

O=C(CCCCCN1C(=O)C=CC1=O)ON1C(=O)CC(S(=O)(=O)O)C1=O (centres unmarked) [Sulfo-EMCS, N-[ε-maleimidocaproyloxy]sulfosuccinimide ester]
Membrane Permeable [1]: No

O=C(CCCN1C(=O)C=CC1=O)ON1C(=O)CC(S(=O)(=O)O)C1=O (centres unmarked) [Sulfo-GMBS, N-[γ-Maleimidobutyryloxy] sulfosuccinimide ester]
Membrane Permeable [1]: No

O=C(CCCCCCCCCCN1C(=O)C=CC1=O)ON1C(=O)CC(S(=O)(=O)O)C1=O.[Na] (centres unmarked) [Sulfo-KMUS]
Membrane Permeable [1]: No

CC(SSc1ccccn1)c1ccc(C(=O)NCCCCCC(=O)ON2C(=O)CC(S(=O)(=O)O)C2=O)cc1 (centres unmarked) [Sulfo-LC-SMPT, sulfosuccinimidyl 6-[a-methyl-a-(2-pyridyl-dithio)toluamido]hexanoate]
Water Soluble [2]: Yes

O=C(CCSSc1ccccn1)NCCCCCC(=O)ON1C(=O)CC(S(=O)(=O)O)C1=O (centres unmarked) [Sulfo-LC-SPDP, sulfosuccinimidyl 6-[3′-(2-pyridyldithio)-propionamido] hexanoate]
Water Soluble [2]: Yes

O=C(ON1C(=O)CC(S(=O)(=O)O)C1=O)c1cccc(N2C(=O)C=CC2=O)c1 (centres unmarked) [Sulfo-MBS, m-maleimidobenzoyl-N-hydoxysulfosuccinimide ester]
Membrane Permeable [1]: No

O=C(CI)Nc1ccc(C(=O)ON2C(=O)CC(S(=O)(=O)O)C2=O)cc1 (centres unmarked) [Sulfo-SIAB, sulfosuccinimidyl(4-iodoacetyl)aminobenzoate]
Membrane Permeable [1]: No

O=C(ON1C(=O)CC(S(=O)(=O)O)C1=O)C1CCC(CN2C(=O)C=CC2=O)CC1 (centres unmarked) [Sulfo-SMCC, sulfosuccinimidyl 4-(N-maleimidomethyl)cyclohexane-1-carboxylate]
Membrane Permeable [1]: No

O=C(CCCc1ccc(N2C(=O)C=CC2=O)cc1)ON1C(=O)CC(S(=O)(=O)O)C1=O (centres unmarked) [Sulfo-SMPB, sulfosuccinimidyl 4-[p-maleimidophenyl]butyrate]
Water Soluble [2]: Yes

Ac-Lys(DTPA)-Tyr-Lys(DTPA)-Lys(TSCG-Cys)-NH2 [IMP 192]
peptide/antibody complexes formed (HPLC traces) ([3]; Tc-99m IMP 192 mixed with antibody, molar ratios 1:5, 1:1, 20:1): essentially only one peptide/antibody complex is formed | complexing of bsMAb with radiolabeled indium-DTPA chelates [3]: complexed

Ac-Phe-Gln-Tyr-Lys(DTPA)-NH2 (Ac-FQYK(DTPA′)-NH2) [IMP 233]
blocking of antibody binding to the IMP 240 chip ([4]; 4:1 peptide/c734 IgG): did not completely block | blocking of antibody binding to the IMP 240 chip ([5]; four equivalents of peptide premixed with the antibody): not completely blocked

Ac-Phe-Lys(DTPA)-Tyr-Lys(DTPA)-NH2 (Ac-FK(DTPA′)YK(DTPA′)-NH2) [IMP 156]
equivalents of peptide needed to block binding to the chip [4]: two or more equivalents | affinity of antibody for In-IMP 156 relative to a single In-DTPA for a c734 IgG binding arm [5]: far higher | equivalents of peptide that block binding to the chip [5]: one equivalent | blocking of antibody binding to the IMP 240 chip ([5]; peptide mixed with antibody in a 1:1 ratio): completely blocked | complexing of bsMAb with radiolabeled indium-DTPA chelates [3]: complexed

hMN-14IgG-(734scFv)2 (bispecific antibody)
percent of In-111 label in the complex peak [6]: 83%

hMN-14IgG^(I253A)-(734scFv)2 (bispecific antibody)
percent of HPLC area in the complex peak after 16 hr in mouse serum [7]: > 90% | percent of bsMAb bound [8]: 90% | percent of In-111 label in the complex peak [6]: 90%

Ac-FK(DTPA′)YK(DTPA′)-NH2 (also: DTPA loaded with indium) [IMP 156 Ac-Phe-Lys(DTPA)-Tyr-Lys(DTPA)-NH2]
equivalents of peptide needed to block binding to the IMP 240 chip [9]: 1 equivalents | equivalents of peptide needed to block binding to the IMP 240 chip [10]: 2 equivalents
